Numbered stars: 1 amine (or outer) side, 2 acyl side, 3 side chain; on linkers, the order of the positions; unused ones are H or OH. Bridge positions count the residues as written; N and C are the ends. Square brackets hold non-standard residues; d marks the D form. Peptide text beside a SMILES is read from it. I, II: the chains in the order shown. Actinocin(9to1) = Cc1c2oc3c(C)ccc(C(=O)[*:1])c3nc-2c(C(=O)[*:2])c(N)c1=O; NMeV = CN[C@H](C(=O)O)C(C)C; Sar = CNCC(=O)O
Columns and labels:
HGADFN003 cells [1] = experiment: SA-β-gal staining of HGADFN003 cells; type: cell-based, human; conditions: Fig.1m, HGADFN003, Vector 65, 68, 69, 65, P<0.0001
Procedure: (§1) SA-β-gal staining was performed as previously described. Cells were fixed in 0.5% glutaraldehyde for 15 min at room temperature, washed three times with PBS (pH 6.0) containing 1 mM MgCl2 and exposed overnight 37 °C to containing 1 mg ml^–1 5-bromo-4-chloro-3-indolyl-β-D-galactopyranoside (MCE, catalog no. HY-15934), 0.12 mM potassium ferrocyanide (Sigma, catalog no. P3289), 0.12 mM potassium ferricyanide (Sigma, catalog no. P8131) and 1 mM MgCl2 PBS buffer (pH 6.0). Cells were washed three times with H2O and observed under a microscope (OLYMPUS CKX53). SA-β-gal positive cells were quantified by investigators who were blinded to the identity of the analyzed cell.

HGADFN003 cells [2] = experiment: Ki67 immunofluorescence of HGADFN003 cells; type: cell-based, human; conditions: Fig.1o, HGADFN003, Vector 45, 38, 49, P=0.0031
Procedure: (§2) Immunofluorescence was performed as described previously. Cells were plated on cover slips in 12-well plates, left overnight before the treatment. Cells were fixed in 1% formaldehyde in culture medium for 10 min at 37 °C and permeabilized with 0.2% Triton X-100 in PBS for 10 min at room temperature. Cells were washed twice in PBS and blocked for 1 h with 5% BSA in PBS and then incubated with primary antibodies at 4 °C overnight, washed three times in PBS and incubated with secondary antibodies for 1 h at room temperature. Cell nuclei were counterstained with a 500 nM concentration of 4,6-diamidino-2-phenylindole (DAPI) (Sigma). Images were acquired by a fluorescence microscope (OLYMPUS FV-1000, Carl Zeiss LSM880 or Leica DMi8) and analyzed with software NIS-Elements AR v.5.0.1 (Nikon), FLUOVIEW v.4.2b (OLYMPUS), ZEN v.2.3 SP1 (Carl Zeiss) and Leica Application Suite X v.3.6.0.24 (Leica). Cells were quantified by investigators who were blinded to the identity of the analyzed cell.

IMR90 cells [3] = experiment: Ki67 immunofluorescence of IMR90 cells; type: cell-based, human; conditions: Fig.1k, IMR90
Procedure: as §2

IMR90 cells [4] = experiment: SA-β-gal staining of IMR90 cells (progerin, BUBR1, shBUBR1); type: cell-based, human; conditions: Fig.1i
Procedure: as §1

[5] = system: IMR90 and HGADFN003 cells; experiment: Metaphase chromosome spread assay, aneuploid cells; type: cell-based, human
Procedure: For the metaphase chromosome spread assay, 1.5 × 10^6 cells were seeded in a 6 cm dish and incubated for 24 h with fresh medium. Then, colchicine was added to a final concentration of 0.2 μg ml^–1 and the cells were incubated at 37 °C for 2 h. After digestion, we collected and rinsed the cells with PBS. The cells were centrifuged at 160g for 10 min. Then, 1 M KCl was added to a final concentration of 0.075 mol l^–1 and the samples were incubated at 37 °C for 20 min. The cells were centrifuged, and the supernatant aspirated. The pellet was resuspended, and 1 ml methanol:glacial acetic acid (3:1) solution was added. The sample was rested at room temperature for 10 min. Then, the cells were centrifuged at 160g for 10 min. The supernatant was aspirated, and the pellet resuspended in 1 ml fixative for 30 min. The cells were centrifuged and the pellet was suspended in 1 ml fixative again for 30 min. The cells were centrifuged at 160g for 10 min and the supernatant aspirated. The pellet was then resuspended in a small volume of fixative (typically less than 500 μl) until the cell suspension appeared lightly milky. A small quantity of the cell suspension was held vertically in a pipette with the end about 10 cm above the slide. A single drop was released from this height onto the slide and allowed to air dry. The cells were then incubated with 500 nM of DAPI (Invitrogen) for 10 min. Slides were examined with an Olympus BX53 fluorescence microscope and the images were captured by using the Olympus IPP v.7.0 software. Aneuploid cells were quantified by investigators who were blinded to the identity of the analyzed cell.

PTBP1–BUBR1 mRNA 3′-UTR = experiment: RIP assay of PTBP1 and BUBR1 mRNA 3′-UTR in HEK-293T cells; type: cell-based
Procedure: RIP and RNA pulldown assays were performed as previously described. The RIP experiment was carried out using the EZ-Magna RIP Kit (Millipore, catalog no. 17-701). The coprecipitated RNAs were extracted through Trizol reagent and detected by RT-PCR. The primer sequences for PCR, synthesized by Comate Bioscience, were as follows:
BUBR1-3′UTR_fwd (5′-[…]-3′) and BUBR1-3′UTR_rev (5′- […]-3′).

BUBR1 mRNA 3ʹ-UTR = experiment: Luciferase activity assay of BUBR1 mRNA 3ʹ-UTR in HEK-293T cells; type: cell-based; conditions: Fig. 4k, Vector = 1, P=0.0012
Procedure: The experiments were performed as described previously. The BUBR1 (–1,200 to +100) promoter or the DNA fragment of BUBR1 mRNA 3′-UTR was inserted into the pGL4.20 vector. Cells were plated in 24-well plates. After 24 h, cells were cotransfected with 200 ng of the indicated firefly luciferase reporter plasmid and 50 ng of Renilla luciferase normalization control plasmid using PEI. At 48 h after transfection, cell lysates were collected to measure luciferase activity using the Dual-Luciferase Reporter Assay System (Promega, catalog no. E1910) according to the manufacturer’s instructions. Luciferase reporter assay was carried out on an TD-20/20 Turner Designs luminometer, data were analyzed and further processed in Microsoft Excel and GraphPad Prism v.7.

[6] = system: progerin–BUBR1 interaction; experiment: CoIP of progerin and BUBR1 in HEK-293T cells; type: cell-based; conditions: HEK-293T co-transfected with truncated mutants and HA-progerin
Procedure: Detailed descriptions of CoIP were described previously[55],[56]. Cells were harvested and washed three times in cold PBS, then lysed in CoIP buffer (25 mM Tris-HCl (pH 7.5), 150 mM KCl, 5 mM EDTA, and 0.5% NP-40) plus protease inhibitor cocktail tablet (Roche). Incubate on ice and shock lysates on the vortex shaker 15 times for 30 s each. Microcentrifuge in 12,000g for 15 min at 4 °C, collect the supernatant, and incubate with 3 μg primary antibodies with gentle shaking overnight at 4 °C, followed by adding 20–40 μl Pure Proteome Protein A/G Mix Magnetic Beads (Millipore, catalog no. […]02) for 3 h. Wash the beads three times with 1 ml CoIP buffer for 8 min each, resuspend in 50 μl 1× loading buffer, and incubate at 100 °C for 8 min. Throw beads away and analyze by immunoblotting.

BUBR1 mRNA = BUBR1 mRNA stability assay with Actinomycin D; type: cell-based, human; conditions: Fig. 4h, +Act D (shCtrl+Act D or shPTBP1#1+Act D), shCtrl = 1
Procedure: RNA preparation was performed as described. Total RNA was extracted using Trizol reagent (TaKaRa) following the manufacturer’s instructions. cDNA was generated with M-MLV reverse transcriptase (Promega, catalog no. M170B). Reverse transcription with PCR (RT-PCR) was performed with SYBR Green Real-Time PCR Master Mix (TaKaRa). RT-PCR was carried out on a QuantStudio 3 Real-Time-PCR Instrument (ABI). Data were analyzed and further processed in QuantStuido Design and Analysis Software and GraphPad Prism v.7. Fold change in gene expression over control samples was calculated using the 2^–ΔΔCt method, where β-actin Ct values were used as an internal control. The primer sequences for PCR, synthesized by Comate Bioscience, were as follows: […]

## BUBR1
HGADFN003 cells [1]; replicate 1
  Relative percentage of SA-β-gal positive cells: 48%
HGADFN003 cells [1]; replicate 2
  Relative percentage of SA-β-gal positive cells: 49%
HGADFN003 cells [1]; replicate 3
  Relative percentage of SA-β-gal positive cells: 50%
HGADFN003 cells [1]; replicate 4
  Relative percentage of SA-β-gal positive cells: 42%
HGADFN003 cells [2]; replicate 1
  Relative percentage of Ki67 positive cells: 78%
HGADFN003 cells [2]; replicate 2
  Relative percentage of Ki67 positive cells: 74%
HGADFN003 cells [2]; replicate 3
  Relative percentage of Ki67 positive cells: 67%
IMR90 cells [3]; Vector 67, 75, 60, P vs Vector: BUBR1 0.803, progerin 0.0018, replicate 1
  Relative percentage of Ki67 positive cells: 64%
IMR90 cells [3]; Vector 67, 75, 60, P vs Vector: BUBR1 0.803, progerin 0.0018, replicate 2
  Relative percentage of Ki67 positive cells: 78%
IMR90 cells [3]; Vector 67, 75, 60, P vs Vector: BUBR1 0.803, progerin 0.0018, replicate 3
  Relative percentage of Ki67 positive cells: 65%
IMR90 cells [3]; progerin+BUBR1, P=0.0042 vs progerin, replicate 1
  Relative percentage of Ki67 positive cells: 48%
IMR90 cells [3]; progerin+BUBR1, P=0.0042 vs progerin, replicate 2
  Relative percentage of Ki67 positive cells: 51%
IMR90 cells [3]; progerin+BUBR1, P=0.0042 vs progerin, replicate 3
  Relative percentage of Ki67 positive cells: 45%
IMR90 cells [4]; Vector 2, 1, 2, P vs Vector: BUBR1 0.2302, progerin 0.0003, replicate 1
  Relative percentage of SA-β-gal positive cells: 3%
IMR90 cells [4]; Vector 2, 1, 2, P vs Vector: BUBR1 0.2302, progerin 0.0003, replicate 2
  Relative percentage of SA-β-gal positive cells: 2%
IMR90 cells [4]; Vector 2, 1, 2, P vs Vector: BUBR1 0.2302, progerin 0.0003, replicate 3
  Relative percentage of SA-β-gal positive cells: 2%
IMR90 cells [4]; progerin+BUBR1, P=0.0026 vs progerin, replicate 1
  Relative percentage of SA-β-gal positive cells: 15%
IMR90 cells [4]; progerin+BUBR1, P=0.0026 vs progerin, replicate 2
  Relative percentage of SA-β-gal positive cells: 18%
IMR90 cells [4]; progerin+BUBR1, P=0.0026 vs progerin, replicate 3
  Relative percentage of SA-β-gal positive cells: 20%
[5]; Fig.1p, IMR90, Vector 6, 5, 8, replicate 1
  Relative percentage of aneuploid cells: 5%
[5]; Fig.1p, IMR90, Vector 6, 5, 8, replicate 2
  Relative percentage of aneuploid cells: 5%
[5]; Fig.1p, IMR90, Vector 6, 5, 8, replicate 3
  Relative percentage of aneuploid cells: 7%
[5]; Fig.1p, IMR90, progerin+BUBR1, replicate 1
  Relative percentage of aneuploid cells: 25%
[5]; Fig.1p, IMR90, progerin+BUBR1, replicate 2
  Relative percentage of aneuploid cells: 17%
[5]; Fig.1p, IMR90, progerin+BUBR1, replicate 3
  Relative percentage of aneuploid cells: 22%
[5]; Fig.1q, HGADFN003, Vector 29, 35, 32, P=0.0053, replicate 1
  Relative percentage of aneuploid cells: 21%
[5]; Fig.1q, HGADFN003, Vector 29, 35, 32, P=0.0053, replicate 2
  Relative percentage of aneuploid cells: 17%
[5]; Fig.1q, HGADFN003, Vector 29, 35, 32, P=0.0053, replicate 3
  Relative percentage of aneuploid cells: 14%

## PTBP1
PTBP1–BUBR1 mRNA 3′-UTR; Fig. 4i, IgG = 1, P=0.0086, replicate 1
  PTBP1 enrichment on BUBR1-3'UTR (2-ΔΔCt): 21.8107
PTBP1–BUBR1 mRNA 3′-UTR; Fig. 4i, IgG = 1, P=0.0086, replicate 2
  PTBP1 enrichment on BUBR1-3'UTR (2-ΔΔCt): 40.6928
PTBP1–BUBR1 mRNA 3′-UTR; Fig. 4i, IgG = 1, P=0.0086, replicate 3
  PTBP1 enrichment on BUBR1-3'UTR (2-ΔΔCt): 24.8579
PTBP1–BUBR1 mRNA 3′-UTR; Fig. 4n, PTBP1, Vector = 1, P<0.0001 vs Vector, replicate 1
  PTBP1 enrichment on BUBR1-3'UTR (2-ΔΔCt): 12.7685
PTBP1–BUBR1 mRNA 3′-UTR; Fig. 4n, PTBP1, Vector = 1, P<0.0001 vs Vector, replicate 2
  PTBP1 enrichment on BUBR1-3'UTR (2-ΔΔCt): 13.1604
PTBP1–BUBR1 mRNA 3′-UTR; Fig. 4n, PTBP1, Vector = 1, P<0.0001 vs Vector, replicate 3
  PTBP1 enrichment on BUBR1-3'UTR (2-ΔΔCt): 13.6473
BUBR1 mRNA 3ʹ-UTR; replicate 1
  Relative luciferase activity of BUBR1 3'UTR (PTBP1/Vector): 3.3
BUBR1 mRNA 3ʹ-UTR; replicate 2
  Relative luciferase activity of BUBR1 3'UTR (PTBP1/Vector): 4
BUBR1 mRNA 3ʹ-UTR; replicate 3
  Relative luciferase activity of BUBR1 3'UTR (PTBP1/Vector): 3

## progerin-C36: truncated progerin-C, aa residues 579–614, used for the design of UPCP (YNLRSRTVLCGTCGQPADKASASGSGAQSPQNCSIM)
[6]
  block of progerin–BUBR1 binding by truncated progerin-C: could block the binding of progerin and BUBR1

## Cc1c2oc3c(C)ccc(C(=O)N[C@@H]4C(=O)N[C@H](C(C)C)C(=O)N5CCC[C@H]5C(=O)N(C)CC(=O)N(C)[C@@H](C(C)C)C(=O)O[C@@H]4C)c3nc-2c(C(=O)N[C@@H]2C(=O)N[C@H](C(C)C)C(=O)N3CCC[C@H]3C(=O)N(C)CC(=O)N(C)[C@@H](C(C)C)C(=O)O[C@@H]2C)c(N)c1=O [ActD] (I: T[dV]P[Sar][NMeV] / II: T[dV]P[Sar][NMeV]; ester I:1-I:C, II:1-II:C; linker I:N-II:N via Actinocin(9to1))
BUBR1 mRNA; replicate 1
  BUBR1 relative (to β-actin) mRNA level (2-ΔΔCt): 0.6794
BUBR1 mRNA; replicate 2
  BUBR1 relative (to β-actin) mRNA level (2-ΔΔCt): 0.7373
BUBR1 mRNA; replicate 3
  BUBR1 relative (to β-actin) mRNA level (2-ΔΔCt): 0.615

Source: PMC10154249, “Unique progerin C-terminal peptide ameliorates Hutchinson–Gilford progeria syndrome phenotype by rescuing BUBR1” (Nature Aging, 2023)
